Patent US10351594B2, “Process for preparing compounds having triple activities of thrombolysis, antithrombosis, and radical scavenging” (Shanghai Lumosa Therapeutics Co., Ltd., priority 2013, dated 2019)
Where two headings read alike, the source gives them in different places.

Tested on: stroke rats
[1] = 1 μmol/kg 5Ak after 4 hours from stroke onset, 1st day
[2] = 1 μmol/kg 5Ak after 4 hours from stroke onset, 2nd day
[3] = 1 μmol/kg 5Ak after 4 hours from stroke onset, 3rd day
[4] = 1 μmol/kg 5Ak after 4 hours from stroke onset, 4th day
[5] = 1 μmol/kg 5Ak after 4 hours from stroke onset, 5th day
[6] = 1 μmol/kg 5Ak after 4 hours from stroke onset, 6th day
[7] = 1 μmol/kg 5Ak after 6 hours from stroke onset, 1st day
[8] = 1 μmol/kg 5Ak after 6 hours from stroke onset, 2nd day
[9] = 1 μmol/kg 5Ak after 6 hours from stroke onset, 3rd day
[10] = 1 μmol/kg 5Ak after 6 hours from stroke onset, 4th day
[11] = 1 μmol/kg 5Ak after 6 hours from stroke onset, 5th day
[12] = 1 μmol/kg 5Ak after 6 hours from stroke onset, 6th day
[13] = 1 μmol/kg 5Ak after 24 hours from stroke onset, 1st day
[14] = 1 μmol/kg 5Ak after 24 hours from stroke onset, 2nd day
[15] = 1 μmol/kg 5Ak after 24 hours from stroke onset, 3rd day
[16] = 1 μmol/kg 5Ak after 24 hours from stroke onset, 4th day
[17] = 1 μmol/kg 5Ak after 24 hours from stroke onset, 5th day
[18] = 1 μmol/kg 5Ak after 24 hours from stroke onset, 6th day
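Further: male SD rats with thrombus-induced cerebral embolism via internal carotid artery, scored daily by Zealonga neurological deficit scale (0 no deficit to 5 death), lower score better.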

Experimental: The therapeutic effect was evaluated by neurological functional scores. The lower the score was, the better the therapeutic effect was. A 10% chloral hydrate solution was injected intraperitoneally into male SD rats at a dosage of 400 mg/kg body weight for anesthesia. A longitudinal incision was made at the center of the neck, and the right common carotid artery trunk was separated (about 3 cm in length). External carotid artery branches were each separated and ligated at the hyoid level, and the internal carotid artery was separated from the swollen part of the neck. The incision of the internal carotid artery and the proximal end of the common carotid artery were clipped respectively with noninvasive arterial clips, and the distal end of the external carotid artery was ligated. A catheter containing 0.5 mL thrombus suspension in normal saline was inserted in the external carotid artery trunk. When the clip on the internal carotid artery was released, the 0.5 mL thrombus suspension in normal saline in the catheter slowly flew from the external carotid artery to its proximal end, and then was injected into the arteries in brain through the internal carotid artery. Subsequently, the proximal end of the internal carotid artery was ligated, the arterial clips on the internal carotid artery and the common carotid artery were released, and blood flow was restored. After the wound was stitched up, 20,000 IU penicillin was intramuscularly injected for prevention from infection. […] Self-comparison was performed each day, and the neurological deficit degree was evaluated by the Zealonga method. A score of 0 indicated no sign of loss in neural function, 1 indicated the front limbs on the undamaged side could not stretch out, 2 indicated walking toward the undamaged side, 3 indicated tail-chasing walking in circles toward the undamaged side, 4 indicated involuntary walking with disturbance of consciousness, and 5 indicated death.

Question: What does the source list for `C[C@H](NC(=O)[C@@H]1CCCN1)C(=O)N[C@@H](CCCCN)C(=O)NCCCC[C@H](NC(=O)[C@@H]1Cc2cc(O)c(O)cc2C(C)(C)N1)C(=O)O` [Compound 5Ak, 3S-6,7-dihydroxy-1,1-dimethyl-1,2,3,4-tetrahydro-isoquinoline-3-acyl-Lys(Pro-Ala-Lys)]?
Answer: therapeutic effect, result in words (1 μmol/kg 5Ak after 4 hours from stroke onset): definite therapeutic effect; Daily neural function scores, number of rats under 0 score [1]: 3; Daily neural function scores, number of rats under 1 score [1]: 5; Daily neural function scores, number of rats under 2 scores [1]: 1; Daily neural function scores, number of rats under 3 scores [1]: 1; Daily neural function scores, number of rats under 4 scores [1]: 0; Daily neural function scores, number of rats under 5 scores [1]: 0; Daily neural function scores, number of rats under 0 score [2]: 5; Daily neural function scores, number of rats under 1 score [2]: 4; Daily neural function scores, number of rats under 2 scores [2]: 1; Daily neural function scores, number of rats under 3 scores [2]: 0; Daily neural function scores, number of rats under 4 scores [2]: 0; Daily neural function scores, number of rats under 5 scores [2]: 0; Daily neural function scores, number of rats under 0 score [3]: 3; Daily neural function scores, number of rats under 1 score [3]: 6; Daily neural function scores, number of rats under 2 scores [3]: 1; Daily neural function scores, number of rats under 3 scores [3]: 0; Daily neural function scores, number of rats under 4 scores [3]: 0; Daily neural function scores, number of rats under 5 scores [3]: 0; Daily neural function scores, number of rats under 0 score [4]: 8; Daily neural function scores, number of rats under 1 score [4]: 1; Daily neural function scores, number of rats under 2 scores [4]: 1; Daily neural function scores, number of rats under 3 scores [4]: 0; Daily neural function scores, number of rats under 4 scores [4]: 0; Daily neural function scores, number of rats under 5 scores [4]: 0; Daily neural function scores, number of rats under 0 score [5]: 6; Daily neural function scores, number of rats under 1 score [5]: 4; Daily neural function scores, number of rats under 2 scores [5]: 0; Daily neural function scores, number of rats under 3 scores [5]: 0; Daily neural function scores, number of rats under 4 scores [5]: 0; Daily neural function scores, number of rats under 5 scores [5]: 0; Daily neural function scores, number of rats under 0 score [6]: 8; Daily neural function scores, number of rats under 1 score [6]: 2; Daily neural function scores, number of rats under 2 scores [6]: 0; Daily neural function scores, number of rats under 3 scores [6]: 0; Daily neural function scores, number of rats under 4 scores [6]: 0; Daily neural function scores, number of rats under 5 scores [6]: 0; therapeutic effect, result in words (1 μmol/kg 5Ak after 6 hours from stroke onset): definite therapeutic effect; Daily neural function scores, number of rats under 0 score [7]: 0; Daily neural function scores, number of rats under 1 score [7]: 4; Daily neural function scores, number of rats under 2 scores [7]: 4; Daily neural function scores, number of rats under 3 scores [7]: 2; Daily neural function scores, number of rats under 4 scores [7]: 0; Daily neural function scores, number of rats under 5 scores [7]: 0; Daily neural function scores, number of rats under 0 score [8]: 0; Daily neural function scores, number of rats under 1 score [8]: 7; Daily neural function scores, number of rats under 2 scores [8]: 2; Daily neural function scores, number of rats under 3 scores [8]: 1; Daily neural function scores, number of rats under 4 scores [8]: 0; Daily neural function scores, number of rats under 5 scores [8]: 0; Daily neural function scores, number of rats under 0 score [9]: 1; Daily neural function scores, number of rats under 1 score [9]: 6; Daily neural function scores, number of rats under 2 scores [9]: 2; Daily neural function scores, number of rats under 3 scores [9]: 1; Daily neural function scores, number of rats under 4 scores [9]: 0; Daily neural function scores, number of rats under 5 scores [9]: 0; Daily neural function scores, number of rats under 0 score [10]: 4; Daily neural function scores, number of rats under 1 score [10]: 4; Daily neural function scores, number of rats under 2 scores [10]: 1; Daily neural function scores, number of rats under 3 scores [10]: 0; Daily neural function scores, number of rats under 4 scores [10]: 0; Daily neural function scores, number of rats under 5 scores [10]: 1; Daily neural function scores, number of rats under 0 score [11]: 7; Daily neural function scores, number of rats under 1 score [11]: 2; Daily neural function scores, number of rats under 2 scores [11]: 0; Daily neural function scores, number of rats under 3 scores [11]: 0; Daily neural function scores, number of rats under 4 scores [11]: 0; Daily neural function scores, number of rats under 5 scores [11]: 0; Daily neural function scores, number of rats under 0 score [12]: 6; Daily neural function scores, number of rats under 1 score [12]: 3; Daily neural function scores, number of rats under 2 scores [12]: 0; Daily neural function scores, number of rats under 3 scores [12]: 0; Daily neural function scores, number of rats under 4 scores [12]: 0; Daily neural function scores, number of rats under 5 scores [12]: 0; therapeutic effect, result in words (1 μmol/kg 5Ak after 24 hours from stroke onset): definite therapeutic effect; Daily neural function scores, number of rats under 0 score [13]: 1; Daily neural function scores, number of rats under 1 score [13]: 4; Daily neural function scores, number of rats under 2 scores [13]: 0; Daily neural function scores, number of rats under 3 scores [13]: 2; Daily neural function scores, number of rats under 4 scores [13]: 1; Daily neural function scores, number of rats under 5 scores [13]: 0; Daily neural function scores, number of rats under 0 score [14]: 2; Daily neural function scores, number of rats under 1 score [14]: 3; Daily neural function scores, number of rats under 2 scores [14]: 3; Daily neural function scores, number of rats under 3 scores [14]: 1; Daily neural function scores, number of rats under 4 scores [14]: 0; Daily neural function scores, number of rats under 5 scores [14]: 0; Daily neural function scores, number of rats under 0 score [15]: 3; Daily neural function scores, number of rats under 1 score [15]: 2; Daily neural function scores, number of rats under 2 scores [15]: 3; Daily neural function scores, number of rats under 3 scores [15]: 0; Daily neural function scores, number of rats under 4 scores [15]: 0; Daily neural function scores, number of rats under 5 scores [15]: 0; Daily neural function scores, number of rats under 0 score [16]: 2; Daily neural function scores, number of rats under 1 score [16]: 3; Daily neural function scores, number of rats under 2 scores [16]: 3; Daily neural function scores, number of rats under 3 scores [16]: 0; Daily neural function scores, number of rats under 4 scores [16]: 0; Daily neural function scores, number of rats under 5 scores [16]: 0; Daily neural function scores, number of rats under 0 score [17]: 4; Daily neural function scores, number of rats under 1 score [17]: 3; Daily neural function scores, number of rats under 2 scores [17]: 1; Daily neural function scores, number of rats under 3 scores [17]: 0; Daily neural function scores, number of rats under 4 scores [17]: 0; Daily neural function scores, number of rats under 5 scores [17]: 0; Daily neural function scores, number of rats under 0 score [18]: 3; Daily neural function scores, number of rats under 1 score [18]: 4; Daily neural function scores, number of rats under 2 scores [18]: 1; Daily neural function scores, number of rats under 3 scores [18]: 0; Daily neural function scores, number of rats under 4 scores [18]: 0; Daily neural function scores, number of rats under 5 scores [18]: 0; rats that died during successive 6-day treatment (1 μmol/kg 5Ak once per day after 4 hours from stroke onset, ten rats): no death occurred; rats that died during successive 6-day treatment (1 μmol/kg 5Ak once per day after 6 hours from stroke onset, n=10): one; rats that died during successive 6-day treatment (1 μmol/kg 5Ak once per day after 24 hours from stroke onset, 8 rats): no death occurred
